Experimental data reported in PubChem BioAssay AID248 (DTP/NCI, 2004).
“And” between values parts separate entries of the source, which are not always exact repeats. Identical values can stand only once. Inconclusive results and toxic doses are left out. No stated cut-off is given here; in the data, active means T/C of 150% or more; inactive means T/C below 125%.

Tested on: L1210 leukemia ip in BDF1 mice, survival T/C
Assay: NCI In Vivo Anticancer Drug Screen. Data for tumor model L1210 Leukemia (intraperitoneal) in B6D2F1 (BDF1) mice
Conditions: endpoint: mean survival time, higher = longer survival
Summary of the method: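 Read-out is survival time, reported as the treated-group measurement over the vehicle-control measurement.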

[1] = dose: 100.0 mg/kg/injection, schedule: Q04DX003 (ip), vehicle: saline
[2] = dose: 100.0 mg/kg/injection, schedule: Q04DX003 (ip), vehicle: saline with Tween-80
[3] = dose: 200.0 mg/kg/injection, schedule: Q04DX003 (ip), vehicle: saline with Tween-80
[4] = dose: 25.0 mg/kg/injection, schedule: Q04DX003 (ip), vehicle: saline
[5] = dose: 50.0 mg/kg/injection, schedule: Q04DX003 (ip), vehicle: saline

Measured: T/C

Cc1nc2ccccc2cc1C#N
inactive: dose: 100.0 mg/kg/injection, schedule: Q01DX001 (ip), vehicle: carboxymethylcellulose (CMC) 118 % of control | dose: 200.0 mg/kg/injection, schedule: Q01DX001 (ip), vehicle: carboxymethylcellulose (CMC) 118 % of control | dose: 400.0 mg/kg/injection, schedule: Q01DX001 (ip), vehicle: carboxymethylcellulose (CMC) 108 % of control

CCCCCCCCCCCC#N
inactive: dose: 100.0 mg/kg/injection, schedule: Q01DX009 (ip), vehicle: saline with Tween-80 107 % of control | dose: 200.0 mg/kg/injection, schedule: Q01DX009 (ip), vehicle: saline with Tween-80 96 % of control | dose: 400.0 mg/kg/injection, schedule: Q01DX009 (ip), vehicle: saline with Tween-80 90 % of control

O=[N+]([O-])c1cc(Br)cc(Br)c1S(=O)(=O)O
inactive: dose: 100.0 mg/kg/injection, schedule: Q01DX009 (ip), vehicle: saline 105 % of control | [1] 103 % of control | dose: 200.0 mg/kg/injection, schedule: Q01DX009 (ip), vehicle: saline 97 % of control | dose: 200.0 mg/kg/injection, schedule: Q04DX003 (ip), vehicle: saline 110 % of control | dose: 400.0 mg/kg/injection, schedule: Q01DX009 (ip), vehicle: saline 108 % of control | dose: 400.0 mg/kg/injection, schedule: Q04DX003 (ip), vehicle: saline 108 % of control

CC1(C)C/C(=C\c2cccc(Br)c2)C(=O)c2ccccc21
inactive: dose: 100.0 mg/kg/injection, schedule: Q01DX009 (ip), vehicle: Klucel (hydroxypropylcellulose) (HPC) 104 % of control | dose: 100.0 mg/kg/injection, schedule: Q04DX003 (ip), vehicle: Klucel (hydroxypropylcellulose) (HPC) 98 % of control | dose: 200.0 mg/kg/injection, schedule: Q01DX009 (ip), vehicle: Klucel (hydroxypropylcellulose) (HPC) 98 % of control | dose: 200.0 mg/kg/injection, schedule: Q04DX003 (ip), vehicle: Klucel (hydroxypropylcellulose) (HPC) 106 % of control | dose: 400.0 mg/kg/injection, schedule: Q01DX009 (ip), vehicle: Klucel (hydroxypropylcellulose) (HPC) 103 % of control | dose: 400.0 mg/kg/injection, schedule: Q04DX003 (ip), vehicle: Klucel (hydroxypropylcellulose) (HPC) 101 % of control

O=C(CCl)Nc1cc2ccccc2c2ccccc12
inactive: dose: 75.0 mg/kg/injection, schedule: Q01DX001 (ip), vehicle: saline 88 % of control | dose: 150.0 mg/kg/injection, schedule: Q01DX001 (ip), vehicle: saline 91 % of control | dose: 300.0 mg/kg/injection, schedule: Q01DX001 (ip), vehicle: saline 96 % of control

CC(=O)OCC(OC(C)=O)C(OC(C)=O)C(OC(C)=O)C(OC(C)=O)C(C=O)OC(C)=O (centres undefined)
inactive: [2] 92 % of control | [3] 95 % of control | dose: 400.0 mg/kg/injection, schedule: Q04DX003 (ip), vehicle: saline with Tween-80 106 % of control

O=C(COc1ccc(Cl)c(Cl)c1)NCc1ccc[n+](Cc2cccc(Cl)c2S(=O)(=O)F)c1
inactive: [4] 103 % of control | [5] 101 % of control | [1] 93 % of control and 100 % of control

CCCCCC/C=C1/CCC/C1=N\NC(=O)c1ccc[n+](C)c1
inactive: [4] 100 % of control | [5] 101 % of control | [1] 100 % of control

COc1ccc(C2C=C(C)Oc3c2c(=O)oc2ccccc32)cc1OC (centres undefined)
inactive: dose: 6.25 mg/kg/injection, schedule: Q01DX009 (ip), vehicle: water 96 % of control | dose: 12.5 mg/kg/injection, schedule: Q01DX009 (ip), vehicle: water 98 % of control | dose: 25.0 mg/kg/injection, schedule: Q01DX009 (ip), vehicle: water 100 % of control and 91 % of control | dose: 50.0 mg/kg/injection, schedule: Q01DX009 (ip), vehicle: water 86 % of control

CCOC(=O)/C=C/C(=O)O.[Cu+2]
inactive: dose: 3.12 mg/kg/injection, schedule: Q04DX003 (ip), vehicle: saline 94 % of control | dose: 6.25 mg/kg/injection, schedule: Q04DX003 (ip), vehicle: saline 89 % of control and 91 % of control

N=c1ccccn1C(=O)C1=Cc2ccccc2OC1
inactive: dose: 100.0 mg/kg/injection, schedule: Q01DX001 (ip), vehicle: saline with Tween-80 103 % of control | dose: 200.0 mg/kg/injection, schedule: Q01DX001 (ip), vehicle: saline with Tween-80 100 % of control | dose: 400.0 mg/kg/injection, schedule: Q01DX001 (ip), vehicle: saline with Tween-80 96 % of control

CC(C)c1cccc(O)c(=O)c1
inactive: [2] 95 % of control | [3] 103 % of control

O=[N+]([O-])c1ccc(-c2cc3ccccc3nc2Cl)cc1
inactive: dose: 100.0 mg/kg/injection, schedule: Q01DX001 (ip), vehicle: saline 92 % of control | dose: 200.0 mg/kg/injection, schedule: Q01DX001 (ip), vehicle: saline 90 % of control | dose: 400.0 mg/kg/injection, schedule: Q01DX001 (ip), vehicle: saline 101 % of control
